ChEMBL document CHEMBL5034015, “Structure-Based Optimization of 3-Phenyl-N-(2-(3-phenylureido)ethyl)thiophene-2-sulfonamide Derivatives as Selective Mcl-1 Inhibitors” (J Med Chem, 2021)
Calls of active or inactive are those of the source. Unless noted, the calls are words filed in the database; no cut-off is given here.

Key:
HEK-293T = test: Cytotoxicity against HEK293T cells assessed as reduction in cell viability incubated for 48 hrs by CCK8 assay; conditions: Homo sapiens
RS4-11 [1] = test: Induction of apoptosis in human RS4-11 cells assessed as viable cells at 20 uM measured after 24 hrs by Annexin V/7-AAD and MitoSense Red staining based flow cytometry analysis relative to control (reference value: 94.15 %); type: functional; conditions: read-out: Activity
RS4-11 [2] = test: Induction of apoptosis in human RS4-11 cells assessed as early apoptotic cells at 20 uM measured after 24 hrs by Annexin V/7-AAD and MitoSense Red staining based flow cytometry analysis relative to control (reference value: 3.75 %); type: functional
RS4-11 [3] = test: Induction of apoptosis in human RS4-11 cells assessed as late apoptotic cells at 20 uM measured after 24 hrs by Annexin V/7-AAD and MitoSense Red staining based flow cytometry analysis relative to control (reference value: 0.99 %); type: functional
RS4-11 [4] = test: Induction of apoptosis in human RS4-11 cells assessed as necrotic cells at 20 uM measured after 24 hrs by Annexin V/7-AAD and MitoSense Red staining based flow cytometry analysis relative to control (reference value: 1.11 %); type: functional
MCF7 = test: Inhibition of Bcl-2/Bim interaction in human MCF7 cells assessed as disruption of Bcl-2/Bim complex at 10 uM measured after 24 hrs by co-immunoprecipitation based western blot analysis relative to control; type: cell-based
Bcl-2-like protein 1 [5] = target: T1, Bcl-2-like protein 1 (Homo sapiens, UniProt Q07817); test: Binding affinity to full length human Bcl-xl expressed in Escherichia coli BL21 (DE3) at up to 100 uM preincubated for 30 mins followed by 5-FAM-QEDIIIINIARHLAQVGDSMD-RSIPPG tracer addition and measured after 20 mins by fluorescence polarization assay; conditions: dose microM <=100, time 50.0 min
[6] = target: T2, Apoptosis regulator Bcl-2 (Homo sapiens, UniProt P10415); test: Binding affinity to full length human Bcl-2 expressed in Escherichia coli BL21 (DE3) at up to 100 uM preincubated for 30 mins followed by 5-FAM-QEDIIIINIARHLAQVGDSMD-RSIPPG tracer addition and measured after 20 mins by fluorescence polarization assay; conditions: dose microM <=100, time 50.0 min
[7] = target: Induced myeloid leukemia cell differentiation protein Mcl-1/Bcl-2-like protein 11 (Homo sapiens) (UniProt Q07820+O43521); test: Inhibition of MCL1/Bim interaction in human MCF7 cells assessed as disruption of MCL1/Bim complex at 10 uM measured after 24 hrs by co-immunoprecipitation based western blot analysis relative to control; type: cell-based
[8] = target: T3, Induced myeloid leukemia cell differentiation protein Mcl-1 (Homo sapiens, UniProt Q07820); test: Binding affinity to 15N-labeled human MCL1 (172 to 327 residues) expressed in Escherichia coli BL21 (DE3) assessed as chemical shift at H224 residue at 0.3 mM incubated for 1 hr by 15N HSQC NMR spectroscopy analysis
[9] = target: T3, Induced myeloid leukemia cell differentiation protein Mcl-1; test: Binding affinity to 15N-labeled human MCL1 (172 to 327 residues) expressed in Escherichia coli BL21 (DE3) assessed as chemical shift at F228 residue at 0.3 mM incubated for 1 hr by 15N HSQC NMR spectroscopy analysis
[10] = target: T3, Induced myeloid leukemia cell differentiation protein Mcl-1; test: Binding affinity to 15N-labeled human MCL1 (172 to 327 residues) expressed in Escherichia coli BL21 (DE3) assessed as chemical shift at M231 residue at 0.3 mM incubated for 1 hr by 15N HSQC NMR spectroscopy analysis
[11] = target: T3, Induced myeloid leukemia cell differentiation protein Mcl-1; test: Binding affinity to 15N-labeled human MCL1 (172 to 327 residues) expressed in Escherichia coli BL21 (DE3) assessed as chemical shift at L235 residue at 0.3 mM incubated for 1 hr by 15N HSQC NMR spectroscopy analysis
[12] = target: T3, Induced myeloid leukemia cell differentiation protein Mcl-1; test: Binding affinity to 15N-labeled human MCL1 (172 to 327 residues) expressed in Escherichia coli BL21 (DE3) assessed as chemical shift at M250 residue at 0.3 mM incubated for 1 hr by 15N HSQC NMR spectroscopy analysis
[13] = target: T3, Induced myeloid leukemia cell differentiation protein Mcl-1; test: Binding affinity to 15N-labeled human MCL1 (172 to 327 residues) expressed in Escherichia coli BL21 (DE3) assessed as chemical shift at R263 residue at 0.3 mM incubated for 1 hr by 15N HSQC NMR spectroscopy analysis
HeLa [14] = test: cells; conditions: Homo sapiens, 48 h
Description: Cytotoxicity against human HeLa cells assessed as inhibition of cell growth incubated for 48 hrs by CCK8 assay

HL-60 [15] = test: cells; conditions: Homo sapiens, HL-60, 48 h
Description: Cytotoxicity against human HL-60 cells assessed as inhibition of cell growth incubated for 48 hrs by CCK8 assay

RS4-11 [16] = test: cells; conditions: Homo sapiens, RS4-11, 48 h
Description: Cytotoxicity against human RS4-11 cells assessed as inhibition of cell growth incubated for 48 hrs by CCK8 assay

Bcl-2-like protein 1 [17] = target: T1, Bcl-2-like protein 1; test: Binding affinity to full length human Bcl-xl expressed in Escherichia coli BL21 (DE3) assessed as inhibition constant preincubated for 30 mins followed by 5-FAM-QEDIIIINIARHLAQVGDSMD-RSIPPG tracer addition and measured after 20 mins by fluorescence polarization assay
[18] = target: T2, Apoptosis regulator Bcl-2; test: Binding affinity to full length human Bcl-2 expressed in Escherichia coli BL21 (DE3) assessed as inhibition constant preincubated for 30 mins followed by 5-FAM-QEDIIIINIARHLAQVGDSMD-RSIPPG tracer addition and measured after 20 mins by fluorescence polarization assay
[19] = target: T3, Induced myeloid leukemia cell differentiation protein Mcl-1; test: Binding affinity to full length human MCL1 expressed in Escherichia coli BL21 (DE3) assessed as inhibition constant preincubated for 30 mins followed by 5-FAM-QEDIIIINIARHLAQVGDSMD-RSIPPG tracer addition and measured after 20 mins by fluorescence polarization assay
Bcl-2-like protein 1 [20] = target: T1, Bcl-2-like protein 1; test: Binding affinity to full length human Bcl-xl expressed in Escherichia coli BL21 (DE3) at 100 uM preincubated for 30 mins followed by 5-FAM-QEDIIIINIARHLAQVGDSMD-RSIPPG tracer addition and measured after 20 mins by fluorescence polarization assay relative to control; conditions: time 50.0 min
[21] = target: T2, Apoptosis regulator Bcl-2; test: Binding affinity to full length human Bcl-2 expressed in Escherichia coli BL21 (DE3) at 100 uM preincubated for 30 mins followed by 5-FAM-QEDIIIINIARHLAQVGDSMD-RSIPPG tracer addition and measured after 20 mins by fluorescence polarization assay relative to control; conditions: time 50.0 min
[22] = target: T3, Induced myeloid leukemia cell differentiation protein Mcl-1; test: Binding affinity to full length human MCL1 expressed in Escherichia coli BL21 (DE3) at 100 uM preincubated for 30 mins followed by 5-FAM-QEDIIIINIARHLAQVGDSMD-RSIPPG tracer addition and measured after 20 mins by fluorescence polarization assay relative to control; conditions: time 50.0 min
[23] = Cytotoxicity against HEK293T cells assessed as cell viability at 20 uM incubated for 48 hrs by CCK8 assay relative to control; type: cell-based, HEK-293T; conditions: human, read-out: Activity
HL-60 [24] = test: Cytotoxicity against human HL-60 cells assessed as cell viability at 20 uM incubated for 48 hrs by CCK8 assay relative to control; type: functional; conditions: read-out: Activity
HeLa [25] = test: Cytotoxicity against human HeLa cells assessed as cell viability at 20 uM incubated for 48 hrs by CCK8 assay relative to control; type: functional; conditions: read-out: Activity
RS4-11 [26] = test: Induction of apoptosis in human RS4-11 cells assessed as increase in cleaved caspase 3 expression incubated for 48 hrs by western blot analysis; type: functional, cell-based
RS4-11 [27] = test: Induction of apoptosis in human RS4-11 cells assessed as increase in cleaved caspase 9 expression incubated for 48 hrs by western blot analysis; type: functional, cell-based
RS4-11 [28] = test: Induction of apoptosis in human RS4-11 cells assessed as increase in cleaved PARP expression incubated for 48 hrs by western blot analysis; type: functional, cell-based
[29] = target: T3, Induced myeloid leukemia cell differentiation protein Mcl-1; test: Binding affinity to full length human MCL1 expressed in Escherichia coli BL21 (DE3) at up to 100 uM preincubated for 30 mins followed by 5-FAM-QEDIIIINIARHLAQVGDSMD-RSIPPG tracer addition and measured after 20 mins by fluorescence polarization assay; conditions: dose microM <=100, time 50.0 min

T3 sequence (Q07820 whole entry, the tested form may be a part): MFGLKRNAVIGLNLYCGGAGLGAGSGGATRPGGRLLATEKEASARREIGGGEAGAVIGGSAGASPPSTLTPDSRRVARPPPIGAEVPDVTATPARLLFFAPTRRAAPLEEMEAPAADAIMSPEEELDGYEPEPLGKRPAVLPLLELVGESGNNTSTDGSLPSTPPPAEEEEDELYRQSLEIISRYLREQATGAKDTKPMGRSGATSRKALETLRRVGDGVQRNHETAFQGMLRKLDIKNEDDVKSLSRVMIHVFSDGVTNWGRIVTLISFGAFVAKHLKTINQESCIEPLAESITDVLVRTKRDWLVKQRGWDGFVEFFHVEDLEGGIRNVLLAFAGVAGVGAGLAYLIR
T1 sequence (Q07817 whole entry): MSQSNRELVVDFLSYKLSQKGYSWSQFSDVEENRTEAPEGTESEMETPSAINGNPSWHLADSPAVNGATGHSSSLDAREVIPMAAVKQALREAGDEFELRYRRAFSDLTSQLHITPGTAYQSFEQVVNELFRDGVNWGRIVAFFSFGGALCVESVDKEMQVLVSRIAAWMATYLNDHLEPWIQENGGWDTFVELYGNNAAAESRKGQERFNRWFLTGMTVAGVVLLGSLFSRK
T2 sequence (P10415 whole entry): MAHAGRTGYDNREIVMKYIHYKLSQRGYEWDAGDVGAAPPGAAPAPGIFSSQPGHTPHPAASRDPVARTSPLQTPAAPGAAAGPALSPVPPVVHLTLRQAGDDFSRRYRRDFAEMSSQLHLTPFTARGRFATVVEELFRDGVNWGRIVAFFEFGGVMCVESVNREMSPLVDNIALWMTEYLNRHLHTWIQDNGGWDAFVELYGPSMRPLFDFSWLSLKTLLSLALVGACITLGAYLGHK
Induced myeloid leukemia cell differentiation protein Mcl-1/Bcl-2-like protein 11 (Homo sapiens), sequence (O43521 whole entry, looked up, the tested form may be a part): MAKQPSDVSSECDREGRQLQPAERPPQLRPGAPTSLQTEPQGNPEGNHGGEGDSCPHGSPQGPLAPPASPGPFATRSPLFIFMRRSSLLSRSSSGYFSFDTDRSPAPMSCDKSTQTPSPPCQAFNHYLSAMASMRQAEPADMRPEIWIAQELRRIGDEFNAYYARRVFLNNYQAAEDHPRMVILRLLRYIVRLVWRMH
Induced myeloid leukemia cell differentiation protein Mcl-1/Bcl-2-like protein 11 (Homo sapiens), sequence (Q07820 whole entry, looked up, the tested form may be a part): as the sequence (Q07820 whole entry, the tested form may be a part) above

| Structure (SMILES) | IC50 (HEK-293T) [µM] | Activity (Bcl-2-like protein 1 [5]) | Activity [6] | Activity [8] | Activity [9] | Activity [10] | Activity [11] | Activity [12] | Activity [13] | IC50 (HeLa [14]) [µM] | IC50 (HL-60 [15]) [µM] | IC50 (RS4-11 [16]) [µM] | Ki [19] [µM] | inhibition (Bcl-2-like protein 1 [20]) [%] | inhibition [21] [%] | inhibition [22] [%] | viability at 20 µM (HeLa [25]) [%] | further results |
| --- | --- | --- | --- | --- | --- | --- | --- | --- | --- | --- | --- | --- | --- | --- | --- | --- | --- | --- |
| Cc1ccc(-c2ccsc2S(=O)(=O)NCCNC(=O)Nc2cc(C(F)(F)F)cc(C(F)(F)F)c2)c(Oc2ccc(O)c(O)c2)c1 | > 20 | inactive | inactive | Active | Active | Active | Active | Active | Active | 9.7 | 3.7 | 5.6 | – | – | – | – | – | viability at 20 µM (RS4-11 [1]): 8.79%; Activity (RS4-11 [2]): 12.98%; Activity (RS4-11 [3]): 75.04%; Activity (RS4-11 [4]): 3.19%; inhibition (MCF7): inactive; inhibition [7]: 70% |
| CC(C)c1ccc(Oc2ccc(O)c(O)c2)c(-c2ccsc2S(=O)(=O)NCCNC(=S)Nc2cc(C(F)(F)F)cc(C(F)(F)F)c2)c1 | 18.1 | – | – | Active | Active | Active | Active | Active | Active | > 20 | 8.2 | 3.7 | 2.1 | – | – | – | – | Ki (Bcl-2-like protein 1 [17]): 4.9 µM; Ki [18]: 2.4 µM |
| O=[N+]([O-])c1ccc(Oc2ccc(O)c(O)c2)c(-c2ccsc2S(=O)(=O)N2CCN(C(=S)Nc3cc(C(F)(F)F)cc(C(F)(F)F)c3)CC2)c1 | > 20 | – | – | Active | Active | Active | Active | Active | Active | > 20 | 8.4 | 9.5 | – | 14 | 12 | 52 | – | – |
| COc1ccc(Oc2ccccc2-c2ccsc2S(=O)(=O)N2CCN(C(=S)Nc3cc(C(F)(F)F)cc(C(F)(F)F)c3)CC2)cc1OC | – | – | – | – | – | – | – | – | – | > 50 | – | > 50 | – | 29 | 25 | 66 | – | viability at 48 h, 20 µM [23]: 42%; viability at 20 µM (HL-60 [24]): 38% |
| CC(C)c1ccc(Oc2ccc(O)c(O)c2)c(-c2ccsc2S(=O)(=O)NCCNC(=O)Nc2cc(C(F)(F)F)cc(C(F)(F)F)c2)c1 | > 20 | inactive | inactive | – | – | – | – | – | – | > 50 | – | 6.8 | 0.36 | – | – | – | – | viability at 20 µM (HL-60 [24]): 23% |
| Cc1ccc(-c2ccsc2S(=O)(=O)NCCNC(=S)Nc2cccc([N+](=O)[O-])c2)c(Oc2ccc(O)c(O)c2)c1 | 7.9 | inactive | inactive | – | – | – | – | – | – | – | 3.4 | 6.1 | 7.5 | – | – | – | 40 | – |
| COc1ccc(Oc2ccccc2-c2ccsc2S(=O)(=O)NCCNC(=S)Nc2cc(C(F)(F)F)cc(C(F)(F)F)c2)cc1OC | 6.8 | inactive | inactive | – | – | – | – | – | – | 6.4 | 2.8 | 3.3 | – | – | – | – | – | Activity (RS4-11 [26]): Dose-Dependent Effect; viability at 20 µM (RS4-11 [1]): 2.6%; Activity (RS4-11 [2]): 3.1%; Activity (RS4-11 [3]): 93.97%; Activity (RS4-11 [4]): 0.26%; Activity (RS4-11 [27]): Dose-Dependent Effect; Activity (RS4-11 [28]): Dose-Dependent Effect; inhibition (MCF7): 20% |
| O=[N+]([O-])c1ccc(NC(=S)N2CCN(S(=O)(=O)c3sccc3-c3ccccc3Oc3ccc(O)c(O)c3)CC2)cc1 | > 20 | – | – | – | – | – | – | – | – | – | 5.3 | 9 | – | 28 | 31 | 81 | 49 | – |
| O=[N+]([O-])c1ccc(NC(=S)NCCNS(=O)(=O)c2ccc(-c3ccccc3OCc3cccc(O)c3)s2)cc1 | > 20 | inactive | inactive | – | – | – | – | – | – | – | 10.8 | 10.1 | – | – | – | – | 28 | Activity [29]: inactive |
| COc1ccc(Oc2ccc([N+](=O)[O-])cc2-c2ccsc2S(=O)(=O)N2CCN(C(=S)Nc3ccc(Cl)cc3)CC2)cc1OC | > 50 | – | – | – | – | – | – | – | – | > 50 | > 50 | > 50 | – | 37 | 18 | 41 | – | inhibition [7]: 30% |
